# PMC10675340, “Preparation, Radiolabeling with ^68Ga/^177Lu and Preclinical Evaluation of Novel Angiotensin Peptide Analog: A New Class of Peptides for Breast Cancer Targeting” (Pharmaceuticals, 2023)
# Where two headings read alike, the source gives them in different places. Where a SMILES comes first, the peptide text is derived from it. [ ]: non-standard residue; d: D form. The star is where a group is joined. DOTA = O=C(O)CN1CCN(CC(=O)O)CCN(CC(=O)*)CCN(CC(=O)O)CC1; βAla = NCCC(=O)O
# Legend:
# [1] = In vivo tumor targeting and biodistribution in nude mice bearing MDA-MB-231 xenografts; set-up: species or system mouse; conditions: mouse, total radioactivity
# Method: (§1) (with 43% wash away from the tumors over 2 h). The amount of radioactivity found for the ^68Ga-labeled AngII peptide analog in the tumors was always more than the radioactivity detected in the blood and muscle. A general pattern of better tumor-to-blood and tumor-to-muscle uptake ratios was noticed over time for ^68Ga-labeled AngII peptide.
# (§2) In vivo, tumor uptake was conducted as reported previously. In summary, ~5 million MDA-MB-231 cells in 200 µL sterile PBS were implanted subcutaneously into each nude mouse. Once tumor growth became sufficient (~50–500 mg), tumor uptake and organ biodistribution were carried out after injecting the radiolabeled AngII peptide. The percent of the injected dose per gram in the tumors was determined by using a custom-designed Quattro Pro X9 spreadsheet (Corel Corporation, Austin, TX, USA).
# [2] = test system: MDA-MB-231 tumor xenografts; experiment: as above; set-up: species or system mouse
# Method: as §1, §2
smiles,measurement,setting,value
"CC[C@H](C)[C@H](NC(=O)[C@H](Cc1ccc(O)cc1)NC(=O)[C@@H](NC(=O)[C@H](CCCNC(=N)N)NC(=O)[C@H](CC(=O)O)NC(=O)CCNC(=O)[C@H](CCCCN)NC(=O)CN1CCN(CC(=O)O)CCN(CC(=O)O)CCN(CC(=O)O)CC1)C(C)C)C(=O)N[C@@H](Cc1c[nH]cn1)C(=O)N1CCC[C@H]1C(=O)N[C@@H](Cc1ccccc1)C(=O)N[C@@H](Cc1c[nH]c2ccccc12)C(=O)N[C@@H](CCCCN)C(=O)N[C@@H](Cc1ccc(O)cc1)C(N)=O [^68Ga-DOTA-AngII peptide, metal not drawn] ({DOTA}-K[βAla]DRVYIHPFWKY-NH2)",tissue uptake at 0.75 h,"[1]; blood, nude mice with MDA-MB-231 xenografts, 45 min p.i., mean ± SD, n = 4-6, read-out: Blood uptake",0.55 ± 0.12 %ID/g
same,tissue uptake at 2 h,"[1]; blood, nude mice with MDA-MB-231 xenografts, 2 h p.i., mean ± SD, n = 4-6, read-out: Blood uptake",0.22 ± 0.1 %ID/g
same,tissue uptake at 0.75 h,"[1]; heart, nude mice with MDA-MB-231 xenografts, 45 min p.i., mean ± SD, n = 4-6, read-out: Heart uptake",0.88 ± 0.3 %ID/g
same,tissue uptake at 2 h,"[1]; heart, nude mice with MDA-MB-231 xenografts, 2 h p.i., mean ± SD, n = 4-6, read-out: Heart uptake",0.65 ± 0.19 %ID/g
same,tissue uptake at 0.75 h,"[1]; intestines without contents, nude mice with MDA-MB-231 xenografts, 45 min p.i., mean ± SD, n = 4-6, read-out: Intestines uptake (portion without contents)",1.2 ± 0.35 %ID/g
same,tissue uptake at 2 h,"[1]; intestines without contents, nude mice with MDA-MB-231 xenografts, 2 h p.i., mean ± SD, n = 4-6, read-out: Intestines uptake (portion without contents)",1.05 ± 0.31 %ID/g
same,tissue uptake at 0.75 h,"[1]; kidneys, nude mice with MDA-MB-231 xenografts, 45 min p.i., mean ± SD, n = 4-6, read-out: Kidneys uptake",4.89 ± 1.97 %ID/g
same,tissue uptake at 2 h,"[1]; kidneys, nude mice with MDA-MB-231 xenografts, 2 h p.i., mean ± SD, n = 4-6, read-out: Kidneys uptake",3.97 ± 1.2 %ID/g
same,tissue uptake at 0.75 h,"[1]; liver, nude mice with MDA-MB-231 xenografts, 45 min p.i., mean ± SD, n = 4-6, read-out: Liver uptake",0.77 ± 0.22 %ID/g
same,tissue uptake at 2 h,"[1]; liver, nude mice with MDA-MB-231 xenografts, 2 h p.i., mean ± SD, n = 4-6, read-out: Liver uptake",0.65 ± 0.28 %ID/g
same,tissue uptake at 0.75 h,"[1]; lungs, nude mice with MDA-MB-231 xenografts, 45 min p.i., mean ± SD, n = 4-6, read-out: Lungs uptake",0.57 ± 0.16 %ID/g
same,tissue uptake at 2 h,"[1]; lungs, nude mice with MDA-MB-231 xenografts, 2 h p.i., mean ± SD, n = 4-6, read-out: Lungs uptake",0.39 ± 0.15 %ID/g
same,tissue uptake at 0.75 h,"[1]; muscle/bone, nude mice with MDA-MB-231 xenografts, 45 min p.i., mean ± SD, n = 4-6, read-out: Muscle/bone uptake",0.4 ± 0.17 %ID/g
same,tissue uptake at 2 h,"[1]; muscle/bone, nude mice with MDA-MB-231 xenografts, 2 h p.i., mean ± SD, n = 4-6, read-out: Muscle/bone uptake",0.19 ± 0.1 %ID/g
same,tissue uptake at 0.75 h,"[1]; pancreas, nude mice with MDA-MB-231 xenografts, 45 min p.i., mean ± SD, n = 4-6, read-out: Pancreas uptake",0.47 ± 0.11 %ID/g
same,tissue uptake at 2 h,"[1]; pancreas, nude mice with MDA-MB-231 xenografts, 2 h p.i., mean ± SD, n = 4-6, read-out: Pancreas uptake",0.29 ± 0.05 %ID/g
same,tissue uptake at 0.75 h,"[1]; spleen, nude mice with MDA-MB-231 xenografts, 45 min p.i., mean ± SD, n = 4-6, read-out: Spleen uptake",0.39 ± 0.08 %ID/g
same,tissue uptake at 2 h,"[1]; spleen, nude mice with MDA-MB-231 xenografts, 2 h p.i., mean ± SD, n = 4-6, read-out: Spleen uptake",0.24 ± 0.05 %ID/g
same,tissue uptake at 0.75 h,"[1]; stomach, nude mice with MDA-MB-231 xenografts, 45 min p.i., mean ± SD, n = 4-6, read-out: Stomach uptake",0.34 ± 0.1 %ID/g
same,tissue uptake at 2 h,"[1]; stomach, nude mice with MDA-MB-231 xenografts, 2 h p.i., mean ± SD, n = 4-6, read-out: Stomach uptake",0.3 ± 0.08 %ID/g
same,tissue uptake at 0.75 h,"[1]; tumor (MDA-MB-231 xenograft), MDA-MB-231 tumor in nude mice, 45 min p.i., mean ± SD, n = 4-6, read-out: Tumor uptake",2.18 ± 0.66 %ID/g
same,tissue uptake at 2 h,"[1]; tumor (MDA-MB-231 xenograft), MDA-MB-231 tumor in nude mice, 2 h p.i., unblocked, mean ± SD, n = 4-6, read-out: Tumor uptake",1.25 ± 0.37 %ID/g
same,tissue to tissue ratio at 2 h,"[1]; tumor / muscle, nude mice with MDA-MB-231 xenografts, 2 h p.i., read-out: Tumor/muscle uptake ratio",6.58
same,tissue to tissue ratio at 0.75 h,"[1]; tumor/blood, nude mice with MDA-MB-231 xenografts, 45 min p.i., read-out: Tumor/blood uptake ratio",3.96
same,tissue to tissue ratio at 2 h,"[1]; tumor/blood, nude mice with MDA-MB-231 xenografts, 2 h p.i., read-out: Tumor/blood uptake ratio",5.68
same,tissue to tissue ratio at 0.75 h,"[1]; tumor/muscle, nude mice with MDA-MB-231 xenografts, 45 min p.i., read-out: Tumor/muscle uptake ratio",5.45
same,dose excreted at 0.75 h,"[1]; urine with bladder contents, nude mice with MDA-MB-231 xenografts, 45 min p.i., mean ± SD, n = 4-6, read-out: Urine + Bladder (urinary excretion)",49.9 ± 10.9%
same,dose excreted at 2 h,"[1]; urine with bladder contents, nude mice with MDA-MB-231 xenografts, 2 h p.i., mean ± SD, n = 4-6, read-out: Urine + Bladder (urinary excretion)",55 ± 8.79%
same,Wash away from the tumors,"[2]; MDA-MB-231 tumors in nude mice, over 2 h (45 min vs 2 h p.i.)",43%
same,Clearance through the hepatobiliary system (liver + intestines),[2]; tumor-bearing nude mice,below 7 % ID
